The test system of assay [1] is herpes simplex virus type 2(HSV-2) (strain HG52). The experiment in a line: Antiviral plaque reduction assay, HSV-2. The class given is cell-based. As to conditions: Human alphaherpesvirus 2; HSV-2, Vero cells, plaque numbers after 2 or 3 days. How it is done:
(§1) Compound 34 is tested for antiviral activity against herpes simplex virus type 1(HSV-1) (strain 17i) and herpes simplex virus type 2(HSV-2) (strain HG52) in vitro. Aqueous solutions of the compounds are prepared at concentrations between 10mM and […]. The solutions are stored at -70°C after preparation and thawed prior to use in the antiviral assays. After thawing, the solutions are diluted to the appropriate concentration in the cell-culture medium without prior filtration.
(§2) In a procedure similar to that described by Tyms etal, J. Antimicrob. Chemother, 8,65-72 (1981), cell monolayers are infected with 20-200 plaque forming units and after virus adsorption the inoculum is replaced by maintenance medium containing different concentrations of the compound under investigation. Virus spread is prevented by the incorporation of 0.5% low gelling temperature agarose. At the end of a set period (2 or 3 days) monolayers are fixed, stained with methylene blue and plaque numbers determined.

Assay [2] relates to herpes simplex virus type 1(HSV-1) (strain 17i). Description: Antiviral plaque reduction assay, HSV-1. The assay is classed as cell-based. As to conditions: Human alphaherpesvirus 1; HSV-1, Vero cells, plaque numbers after 2 or 3 days. The method, then: as §1, §2
For orientation: Plaque reduction counts the foci of infection that form in a cell layer.

Each structure is given as a SMILES string. pIC50: −log10 of the molar value.

Among the data in patent EP0629633A2, “Dinucleotide analogues, intermediates therefor and oligonucleotides derived therefrom” (CIBA-GEIGY AG, priority 1993, dated 1994) are IC50 values, retold here.

In general, pIC50 refers to −log10 of the IC50, conventionally taken in molar units. A high value points to a small IC50.

As for `Cc1cn(C2CC(O)C(CCP(=O)(c3ccccc3)C(O)C3CC(n4cc(C)c(=O)[nH]c4=O)OC3CO[Si](c3ccccc3)(c3ccccc3)C(C)(C)C)O2)c(=O)[nH]c1=O` (centres unmarked) [Compound 34], the results for the pIC50 in assay [1] and in assay [2] were 5.42 and 5.59, respectively.
